Results as given in ChEMBL document CHEMBL3507680, “University of Dundee, Gates Library screen for HepG2 cell viability”.
Where “and” joins values, the source holds several entries; their conditions need not be identical. Identical values can stand only once.

Legend:
[1] = Human HepG2 cell viability assay in 384 well format; assay type: toxicity, cell-based; design: dose 125 nL, time 70.5 hour; concentration not given beside the values; conditions: HepG2 cells, read-out: Inhibition
[2] = Human HepG2 cell viability dose-response assay; assay type: toxicity, cell-based

| Structure (SMILES) | cytotoxicity at 70.5 h [1] [%] | BOTTOM [2] | HILLSLOPE [2] | TOP [2] | pXC50 [2] |
| --- | --- | --- | --- | --- | --- |
| CCCc1nc2c(c(C)c(C)n2Cc2ccccn2)c(N)c1CC | 80.2 | 13.8 and 17.26 | 1.43 and 1.529 | 100 | 5.166 and 5.178 |
| COC[C@H]1CCC[C@]12CN(Cc1cccc(C)n1)CCO2 | 63.1 | 0 | 0 | 0 | < 4.53 |
| CC(C)N(C)C(=O)c1ccc(CNc2ccncc2Cl)cc1 | 74.8 | 0 | 0 | 0 | < 4.53 |
| CC(C)n1ccc(C(=O)NCC(O)c2c(Cl)cccc2Cl)n1 (stereo not given) | 65.8 | 0 | 0 | 0 | < 4.53 |
| COCc1noc(-c2ccc(N(C)Cc3ncccc3C)nc2)n1 | 73.3 | -13.69 and -12.76 | 1.85 and 1.799 | 100 | 5.092 |
| CC1(C)Cc2nc(C(C)(C)C)ncc2C(NC(=O)C2(N)CC2)C1 (stereo not given) | 105 | 0 | 0 | 0 | < 4.53 |
